Structures can show the parent of a compound that is named as a salt. Active and inactive are the calls of the source. No rule for the calls is given here.
Assay: Cytotoxicity activity against human HepG2 cells assessed by CellTiter-Glo luminescent cell viability assay.
Format: toxicity, cell-based
Set-up: assay stage confirmatory assay, source tissue liver
Conditions: HepG2 cells, read-out: IC50 relative

SMILES	CC50
COc1cccc(-c2noc(-c3ccc(N4CCN(C(C)C)CC4)nc3)n2)c1OC	13.1 µM (active)
CN(c1ccc(NC(=O)Nc2ccc(OC(F)(F)F)cc2)cc1)c1ccnc(Nc2cccc(S(N)(=O)=O)c2)n1 [GW806742X]	0.9 µM (active)
O=S(=O)(Nc1cccc2cccnc12)c1ccc2c(c1)OCCO2	10.4 µM (active)
Cc1cn(CCN2CCN(c3ccccc3-c3cc(C#N)cc(C(=O)NCCCN4CCCC4)c3)CC2)c2ccccc12	1.4 µM (active)
Cc1cccc2nc(C(=O)Nc3ccc(S(=O)(=O)Nc4nccs4)cc3)cn12	1.4 µM (inactive)
N#Cc1c[nH]c(C(=O)Nc2cc(C(F)(F)F)ccn2)c1	12.3 µM (active)
COCCN1COc2c(cc(Cl)c3cccnc23)C1	7.5 µM (active)
Nc1ccccc1NC(=O)CCCCCC(=O)Nc1ccccc1	11.7 µM (active)
COc1ccc2cc(S(=O)(=O)N[C@H](CC(=O)N[C@H](Cc3ccc(CN4[C@H](C)CCC[C@@H]4C)cc3)C(=O)N(C)C(C)C)c3ccc4c(c3)OCO4)ccc2c1	4.1 µM (active)
CN[C@H]1CCCN(S(=O)(=O)c2ccc(Cl)cc2F)C1	17.1 µM (inactive)
CN(C)[C@@H](CCOc1cccc2ccccc12)c1ccccc1 [DAPOXETINE HYDROCHLORIDE]	6.3 µM (active)
O=C(NO)c1ccc(I)cc1	12.2 µM (active)
C=C(C)[C@@H]1Cc2c(ccc3c2O[C@H]2COc4cc(OC)c(OC)cc4[C@H]2C3=O)O1	0.3 µM (active)
CCCCCCCCCCCCC/C=C/[C@@H](O)[C@@H](N)CO [SPHINGOSINE]	11.2 µM (active)
O=C(Nc1cccc(Nc2ncc(Br)c(NCCc3c[nH]cn3)n2)c1)N1CCCC1	3.3 µM (active)
O=C(NC[C@H](O)CO)c1ccncc1Nc1ccc(I)cc1F [PIMASERTIB]	< 0.1 µM (active)
CCc1nccn1[C@H]1CCCN(CCOc2ccc(F)cc2)C1	6 µM (active)
O=C(Cn1nnc2ccccc21)Nc1nc(-c2ccccn2)cs1	1.7 µM (active)
Cc1ccc2c(NS(=O)(=O)c3ccccc3Cl)cccc2c1Oc1ncccc1-c1ccnc(N[C@H]2CCCNC2)n1	5.2 µM (active)
CN1CCC(c2cc(-c3ccncc3)c(-c3ccc(F)cc3)[nH]2)CC1	9.2 µM (active)
CNc1cccc(NC(=O)N[C@@H]2N=C(c3ccccn3)c3ccccc3N(CC(=O)C(C)(C)C)C2=O)c1 [NETAZEPIDE]	18.4 µM (inactive)
O=C(Nc1nc2ccc(NC(=O)C34CC5CC(CC(C5)C3)C4)cc2s1)c1ccccc1	15 µM (inactive)

SMILES	CC50
Cc1cc(C)n(C(=O)Cc2cccs2)n1	16 µM (inactive)
CCc1nc(-c2cc(S(=O)(=O)N3CCCC(C(=O)N4CCC(C)CC4)C3)c(C)s2)no1 (stereo not drawn)	7.9 µM (active)
O=C(CC1NCCCC1O)Cn1cnc2cc(Br)c(Cl)cc2c1=O (stereo not drawn) [HALOFUGINONE]	0.1 µM (active)
CCS(=O)(=O)c1ncc(Br)c(C(=O)Nc2ccc(C)cc2)n1	3.1 µM (active)
COc1cc(OC)c(C2=CCN(C[C@H](O)COc3ccccc3F)CC2)c(OC)c1	6 µM (active)
OCCN1CCN(CCCN2c3ccccc3Sc3ccc(Cl)cc32)CC1 [PERPHENAZINE]	3.4 µM (active)
CNc1nc(NCc2ccc(NS(C)(=O)=O)cc2Cl)cc(-c2ccccn2)n1	14.3 µM (inactive)
Cc1ccc(S(=O)(=O)N[C@@H](Cc2ccccc2)C(=O)CCl)cc1 [TPCK]	7.9 µM (active)
c1ccc(CCCN2CCN(CCOC(c3ccccc3)c3ccccc3)CC2)cc1	9.1 µM (active)
CCc1ccc(-c2cc(C(=O)N3C[C@H]4CC[C@@H]3CN(C)C4)[nH]n2)cc1	13.9 µM (inactive)
CN(C)Cc1ccc(-c2nc3cccc4c3n2CCNC4=O)cc1	10.9 µM (active)
C1=CC[C@@H](CNC2CCN(Cc3ccccc3)CC2)CC1	13 µM (active)
O=C1/C(=C/c2ccc([N+](=O)[O-])cc2)CS(=O)(=O)C/C1=C\c1ccc([N+](=O)[O-])cc1	0.1 µM (active)
NCC1CCN(c2nccc(-c3ccc4ccccc4c3)n2)CC1	4.4 µM (active)
COc1cc(/C=C(\C#N)C(=O)Nc2nnc(C(F)(F)F)s2)ccc1OCc1ccc(C(F)(F)F)cc1C(F)(F)F	12 µM (active)
Cc1cc(C)n(-c2ccc(C(=O)Nc3ncccc3O)cc2)n1	8.8 µM (active)
COCCNc1ncnc2scc(-c3ccccc3)c12	8.6 µM (active)
CC[C@@H]([C@H](C)O)n1ncn(-c2ccc(N3CCN(c4ccc(OC[C@@H]5CO[C@@](Cn6cncn6)(c6ccc(F)cc6F)C5)cc4)CC3)cc2)c1=O [POSACONAZOLE]	19.6 µM (inactive)
Cn1cc(/C=C2\C(=O)Nc3cccnc32)c2ccccc21	8.1 µM (inactive)
COc1cc2c3c(n(CCCNCCO)c(=O)c2cc1OC)-c1cc2c(cc1C3=O)OCO2	1.1 µM (active)
CCCc1cc(NCCCN2CCOCC2)n2ncc(-c3ccccc3)c2n1	10.8 µM (active)
CC(C)(C)C(=O)/C(=C/c1cccc([N+](=O)[O-])c1)n1cncn1	0.6 µM (active)

SMILES	CC50
COc1ccc(-c2noc(N3CCC(C(=O)NCCCN4CCC(C)CC4)CC3)n2)cc1	19.2 µM (inactive)
CSc1cccc(NC(=O)Nc2ccc3c(c2)N(S(C)(=O)=O)CC3)c1	5.4 µM (active)
Cc1cc(C(=O)Nc2ccc(Cl)cc2F)nc2ccnn12	2.4 µM (inactive)
CNc1ncc2cc(-c3cc(NC(=O)NCCC(C)(C)C)c(F)cc3C)c(C)nc2n1 [LY-3009120]	0.4 µM (active)
CN1CCC[C@@H]1CCO[C@](C)(c1ccccc1)c1ccc(Cl)cc1 [CLEMASTINE FUMARATE]	5.4 µM (active)
CCCS(=O)(=O)Nc1ccc(Nc2nc(C)cc(N(CC)CC)n2)cc1	6.4 µM (active)
CCCOc1cc(S(=O)(=O)Nc2cccc(O)c2)ccc1Cl	12 µM (active)
CCc1cccc(NC(=O)Nc2ccc3c(c2)N(S(C)(=O)=O)CC3)c1	2.9 µM (active)
CO[C@H]1/C=C\C=C(\C)C(=O)NC2=CC(=O)C(NCCN(C)C)=C(C[C@@H](C)C[C@H](OC)[C@H](O)[C@@H](C)/C=C(/C)[C@@H]1OC(N)=O)C2=O	< 0.1 µM (active)
CCCC[C@H](CC)CNC1CCN(C(C)C)CC1	7.8 µM (inactive)
O=S1(=O)C[C@H](NC2CCCC2)[C@@H](S(=O)(=O)c2cccs2)C1	16.1 µM (active)
CC(Cc1ccc(O)c(O)c1)C(C)Cc1ccc(O)c(O)c1 (stereo not drawn) [NORDIHYDROGUAIARETIC ACID]	10.3 µM (inactive)
CCN(CC)CCNC(=O)C1CCCN(c2ncc(-c3ccc(C)cc3)cn2)C1 (stereo not drawn)	4.3 µM (active)
CN(C)c1ccc(C(=O)NCCCCCCC(=O)NO)cc1	0.9 µM (active)
CC1Oc2ccc(S(=O)(=O)N3CCN(C(=O)c4ccc(Br)cc4)CC3)cc2NC1=O (stereo not drawn)	4 µM (active)
CC1(C)CC(Nc2ccc(Nc3ccccc3)cc2)CC(C)(C)N1	10.9 µM (active)
CN1CCC(COc2cnc(-c3cccc(Cn4nc(-c5cccc(C#N)c5)ccc4=O)c3)nc2)CC1 [TEPOTINIB]	3.4 µM (active)
C[C@]12CC[C@H](O)CC1=CC[C@@H]1[C@@H]2CC[C@]2(C)C(n3cnc4ccccc43)=CC[C@@H]12 [GALETERONE]	10.4 µM (active)
O=C(Nc1ncccc1O)c1ccc(OCc2cn3ccccc3n2)cc1	6.7 µM (active)
Cc1ccc(S(=O)(=O)N2CCN(c3ccc(Nc4ccncc4)nn3)CC2)cc1	10.4 µM (active)
CCOc1nc2cccc(C(=O)OC(C)OC(=O)OC3CCCCC3)c2n1Cc1ccc(-c2ccccc2-c2nnn[nH]2)cc1 (stereo not drawn) [CANDESARTAN CILEXETIL]	10.7 µM (active)
CN1CCCC(CNc2ccc3cc(Cl)ccc3n2)C1 (stereo not drawn)	7.9 µM (active)

SMILES	CC50
C[C@@H]1CNCCN1S(=O)(=O)c1cccc(Br)c1	50 µM (inactive)
O=S(=O)(Nc1cccc2cccnc12)c1ccccc1F	2.6 µM (active)
COc1cc(OC)cc(C(=O)NCc2nc3ncc(Br)cc3[nH]2)c1	3.7 µM (active)
CC[C@@H](N)CNc1ccnc(-c2cc(-c3cnn(C)c3)ccc2O)n1	1.2 µM (active)
COc1cc2nc(N3CCN(C(=O)c4ccco4)CC3)nc(N)c2cc1OC [PRAZOSIN HYDROCHLORIDE]	6.6 µM (active)
O=S1(=O)C[C@H](NCCc2c[nH]c3ccccc23)[C@@H](S(=O)(=O)c2cccs2)C1	11.6 µM (inactive)
O=c1cc(-c2ccc(O)c(O)c2)oc2cc(O)cc(O)c12 [LUTEOLIN]	9 µM (active)
CC(C)(C)Cn1c(N)nc2ccc(-c3[nH]c(C(C)(C)C)nc3-c3ccc(F)cc3)nc21 [RALIMETINIB MESYLATE]	13.2 µM (active)
C#CCC(Cc1cnc2nc(N)nc(N)c2n1)c1ccc(C(=O)N[C@@H](CCC(=O)O)C(=O)O)cc1 (stereo partly drawn) [PRALATREXATE]	< 0.1 µM (active)
O=C(Nc1cnccc1Cl)N1CCN(Cc2ccc3c(c2)OC(F)(F)O3)CC1 [JNJ-42165279]	11.9 µM (inactive)
COc1cc(OC)cc(C(=O)N2CCN(Cn3ncc(Cl)c(Cl)c3=O)CC2)c1	23.4 µM (inactive)
CCOCCCNC(=O)c1nnn(-c2ccc3ncccc3c2)c1C	3.1 µM (active)
COC(=O)C1=C(C)NC(C)=C(C(=O)OCC(C)C)C1c1ccccc1[N+](=O)[O-] (stereo not drawn) [NISOLDIPINE]	11.1 µM (active)
COC[C@H](NC(=O)c1cnc(C)s1)C(=O)N[C@@H](COC)C(=O)N[C@@H](Cc1ccccc1)C(=O)[C@@]1(C)CO1 [OPROZOMIB]	0.1 µM (active)
CNc1nc(Nc2cccc(NC(C)=O)c2)nc2ccccc12	5.2 µM (active)
Cc1cccc(Cl)c1OCCN(C)CC1(C)COC1	50 µM (inactive)
O=c1[nH]ccc2c(Br)cccc12	8.3 µM (inactive)
Cc1nonc1Cn1nc(Cl)c(Cl)cc1=O	21.6 µM (inactive)
Cc1cc(NC(=O)CSC(C)C)cc2sc(N)nc12	13.7 µM (active)
CN1CCCC(n2nc(Cc3ccc(Cl)cc3)c3ccccc3c2=O)CC1 (stereo not drawn) [AZELASTINE HYDROCHLORIDE]	10 µM (active)
O=C(Nc1nc(-c2ccccn2)cs1)c1ccc(-n2cncn2)cc1	1.5 µM (active)
CNc1nc(Nc2ccc(C(=O)N3CCOCC3)cc2OC)nc2[nH]cc(Cl)c12	5 µM (active)

Source: ChEMBL document CHEMBL5303711, “ECBD screening data for assay EOS300108” (2023)
